Data published in patent publication US11472752B2, “Method for making resistant to thiodicarb (carbamate) and bifenthrin (pyrethroid) a consortium of fungi that solubilise phosphorous and antagonise certain pathogens, for use in liquid biofertilisers for foliar and/or soil application” (priority 2018, dated 2022).

Tests used:
Test in all cases: Stagewise adaptation on growth media poisoned with thiodicarb or bifenthrin; mortality rate
Format in all cases: cell-based
Metarhizium anisopliae = details: for Resistant to: FINAL: final development characteristics
Experimental: (§1) Strains of sulphur sulubilizer fungi, antagonist to some pathogens: • a) Paecilomyces sp. • b) Beauveria bassiana • c) Trichoderma harzianum • d) Metarhizium anisopliae Preparation for Stage Development 1. Glass material is sterilized in an autoclave. 2. The required amount of growth media is prepared with 3% rice broth (P/V), and 9% of a solution of molasses, sterilized at 121° C. for 15 minutes at a pressure of 15 lb. 3. Lethal dose (LD) applied to a hectare is established, for thiodicarb as well as bifenthrin. 10 Petri dishes are prepared with 0.1 LD of thiodicarb of bifenthrin. Dishes are incubated at 25° C. for 72 hours with cold light. 4. From the previous suspension with a known concentration, (107) the growth media is seeded with 1 ml, the pH adjustment is performed at 5.5 with a sterile 10 citric acid solution. 5. Stir at 110 rpm and 27 OC for 7 days. 6. The process is monitored controlling the variables, mainly the pH and biomass concentration, adjusting the pH to 5.5 during the entire process. 7. On the fourth day of the process, the foam formation is controlled with 1% soy oil and the stirring speed. Methodology a. Petri dishes are placed inside the laminar flow chamber along with the diluted samples, to seed microorganisms in the dishes, a one ml sample of the strain is taken with an automated pipette, 10^−1 and 10^−2 solutions are performed, and each solution is homogenized. b. Having the petri dishes with the sterile and cold growth media, it is homogenized with 6 right to left movements, 6 clockwise movements, 6 counterclockwise movements and 6 front to back movements over a flat horizontal surface until the inoculum is completely integrated into the media, stand until it solidifies and each dish is covered with parafilm to avoid contamination during incubation. c. Dishes with thiodicarb and Bifenthrin are placed inside the incubator at 25° C. for 72 hours with a cold light lamp. d. Inoculated dishes are incubated for 15 days, the product concentration impact is determined on mycelial growth, sporulation and germination (12 hours of incubation). e. The residual impact of the product is reviewed after 7 days in the malt agar, dextrose and PDA agar media, enriched with minerals. f. If there is no growth over 10%, the process is repeated until a mortality under 90% is obtained. g. […] After that, the suspension is stirred for 30 seconds in a Vortex tube mixer. The spore concentration is measured in a Newbawer Chamber and the results are reported in conidia per […]. i. From the 10 Petri dishes for each microorganism, the one with the lowest mortality rate is the one that will continue with the following study. j. The study is performed again using this percentage until coverage increases and so on, the addition of thiodicarb and bifenthrin is alternated with the LD in intervals of 0.1 LD; all these experiments have been designed with the experimental strains and a control. k. With the data obtained from the mycelial growth and sporulation, the percentage of inhibition of gradual growth is obtained, the data is transformed for its analysis with the expression 2 arc sin, and the sporulation through the equation Log 10(x+10). A two-way classification analysis of variance is applied and later the Turkey test is performed using a 5% probability.
(§2) For each species, stages analyzing times required to cover the entire field were performed. Once this time was determined, they were left to rest for 10 days to be later subject to the following protocol: […]

Beauveria bassiana = details: for Resistant to: FINAL: final characteristics after selective process
Experimental: as §1
(§3) For each species, stages analyzing times required to cover the entire field were performed. Once this time was determined, they were left to rest for 10 days to be later subject to the following protocol:
Stages begin with the conditions in its natural habitat: pH—7.0 a 7.5, Humidity: 30 to 40% and humidity is increased up to 70% and a Temperature from 28 to 30° C., maintained during all the research term. These conditions are the starting point to adapt the strain to thiodicarb (carbamate) and bifenthrin (pyrethroid). During all stages, we will be using a cold light lamp to adapt the microorganism to sunlight.

Paecilomyces sp. = system: Paecilomyces sp.
Experimental: Strains of sulphur sulubilizer fungi, antagonist to some pathogens: • a) Paecilomyces sp. • b) Beauveria bassiana • c) Trichoderma harzianum • d) Metarhizium anisopliae Preparation for Stage Development 1. Glass material is sterilized in an autoclave. 2. The required amount of growth media is prepared with 3% rice broth (P/V), and 9% of a solution of molasses, sterilized at 121° C. for 15 minutes at a pressure of 15 lb. 3. Lethal dose (LD) applied to a hectare is established, for thiodicarb as well as bifenthrin. 10 Petri dishes are prepared with 0.1 LD of thiodicarb of bifenthrin. Dishes are incubated at 25° C. for 72 hours with cold light. 4. […] The process is monitored controlling the variables, mainly the pH and biomass concentration, adjusting the pH to 5.5 during the entire process. […] Inoculated dishes are incubated for 15 days, the product concentration impact is determined on mycelial growth, sporulation and germination (12 hours of incubation). e. […] The spore concentration is measured in a Newbawer Chamber and the results are reported in conidia per square millimeter. i. […]
as §2

Trichoderma harzianum = system: Trichoderma harzianum
Experimental: as §1, §3
Procedures begin with the conditions in its natural habitat: Humidity: 30 to 40% and humidity is increased up to 70% and a Temperature from 28 to 30° C., maintained during all the research term. pH from 7.0 to 7.5. These conditions are the starting point to adapt the strain to thiodicarb and bifenthrin.

[1] = stages E-3 and E-4, 0.2 LD (0.000035 gr)
[2] = stages E-33 and E-34, 0.9 LD (0.00016 gr)
[3] = stages E-35 and E-36, 1 LD (0.00018 gr)
[4] = stages E-25 and E-26, 0.7 LD (0.00012 gr)
[5] = stages E-43 and E-44, 1.2 LD (0.00022 gr)
[6] = stages E-49 and E-50, 1.1 LD (0.00024 gr)
[7] = stages E-51 and E-52, 1.2 LD (0.00026 gr)

For `Cc1c(COC(=O)[C@@H]2[C@H](/C=C(\Cl)C(F)(F)F)C2(C)C)cccc1-c1ccccc1` (racemic) [bifenthrin, 2-methyl biphenyl-3-ilmetil(2)-(1RS,3RS)-3-(2-chlorine 3,3,3-trifluoropropene)-2,2-dimethyl-cyclo-propane-carboxylate], the “Resistant to: FINAL” value (Metarhizium anisopliae) was 1.3 LD of and the “Resistant to: FINAL” value (Beauveria bassiana) was 1 LD of thiodicarb.
With `CS/C(C)=N\OC(=O)N(C)SN(C)C(=O)O/N=C(\C)SC` [thiodicarb] the “Resistant to: FINAL” value (Metarhizium anisopliae) was 1.3 LD of, the mortality rate (Metarhizium anisopliae; [1]) was 55% and the mortality rate (Metarhizium anisopliae; [2]) was 15%. The mortality rate (Metarhizium anisopliae; [3]) was 15%, the mortality rate (Paecilomyces sp.; [2]) was 8% and the mortality rate (Paecilomyces sp.; [3]) was 15%. The mortality rate (Trichoderma harzianum; stage E-1, 0.1 LD (0.0000175 gr), until day 68 of incubation) was 82%, the mortality rate (Trichoderma harzianum; stage E-2, 0.1 LD (0.0000175 gr)) was 85% and the mortality rate (Trichoderma harzianum; stages E-11 and E-12, 0.4 LD (0.000070 gr)) was 75%. It also gave a mortality rate (Trichoderma harzianum; stages E-19 and E-20, 0.6 LD (0.00011 gr)) of 66%, a mortality rate (Trichoderma harzianum; [4]) of 60% and a mortality rate (Trichoderma harzianum; [5]) of 18%. The mortality rate (Trichoderma harzianum; [6]) was 10%, the mortality rate (Trichoderma harzianum; [7]) was 8% and the “Resistant to: FINAL” value (Beauveria bassiana) was 1 LD of thiodicarb. The mortality rate (Beauveria bassiana; stages E-1 and E-2, 0.1 LD (0.0000175 gr), 32% humidity) was 73%, the mortality rate (Beauveria bassiana; [1]) was 73-79% and the mortality rate (Beauveria bassiana; [4]) was 23%. For the same compound, the mortality rate (Beauveria bassiana; [3]) was 26%, the mortality rate (Beauveria bassiana; [5]) was 20% and the mortality rate (Beauveria bassiana; [6]) was 14%. For the same compound, the mortality rate (Beauveria bassiana; [7]) was 11%.
